Results taken from publication PMC3880221 (Chembiochem : a European journal of chemical biology, 2011).

Experiments:
NQO1 (QR1) = NQO1 (QR1) (Homo sapiens, UniProt P15559); assay: recombinant human NQO1 activity after treatment with […] compound ± NADH; type: biochemical
[1] = target: T1, NRH:quinone oxidoreductase 2 (NQO2, QR2) (Homo sapiens, UniProt P16083); assay: co-crystal structure; type: binding
T1 sequence (P16083 1-231): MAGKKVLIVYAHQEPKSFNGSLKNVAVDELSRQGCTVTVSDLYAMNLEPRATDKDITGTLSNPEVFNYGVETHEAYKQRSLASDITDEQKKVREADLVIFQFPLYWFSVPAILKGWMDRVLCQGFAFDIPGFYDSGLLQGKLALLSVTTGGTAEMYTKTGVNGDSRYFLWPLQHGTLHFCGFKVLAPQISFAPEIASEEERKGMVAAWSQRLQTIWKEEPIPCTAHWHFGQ

Sequence of NQO1 (QR1) (P15559 whole entry): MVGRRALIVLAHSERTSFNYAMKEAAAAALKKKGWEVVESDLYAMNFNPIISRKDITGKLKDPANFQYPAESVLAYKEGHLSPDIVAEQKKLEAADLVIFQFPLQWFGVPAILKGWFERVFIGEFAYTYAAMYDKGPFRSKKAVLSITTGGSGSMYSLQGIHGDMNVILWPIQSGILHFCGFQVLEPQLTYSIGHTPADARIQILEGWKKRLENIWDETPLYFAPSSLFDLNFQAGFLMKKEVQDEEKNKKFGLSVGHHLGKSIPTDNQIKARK

partition ratio (NQO1 (QR1)) | Kd [1] | SMILES
3.5 (partition ratio) | – | COC1=CC(=O)c2c(c(COc3ccc([N+](=O)[O-])cc3)c(C)n2C)C1=O [1a, 5-methoxy-1,2-dimethyl-3-(4-nitrophenoxymethyl)indole-4,7-dione]
– | Kd1 = 71; Kd2 = 19 μM | Cc1c(COc2ccc([N+](=O)[O-])cc2)c2c(n1C)C(=O)C=C(NCCCCN)C2=O [2c, 5-(4-Aminobutyl)amino-1,2-dimethyl-3-(4-nitrophenoxy)methylindole-4,7-dione]
